Literature values as cited in publication PMC9963398, “Discovery of New Quinolone-Based Diarylamides as Potent B-RAF^V600E/C-RAF Kinase Inhibitors Endowed with Promising In Vitro Anticancer Activity” (International Journal of Molecular Sciences, 2023).

Experiments:
RPMI-8226 = tested on: RPMI-8226; parameters: method as in PMID 32745753; details: RPMI-8226, Leukemia; cited from earlier work
SW-620 = tested on: SW-620; parameters: method as in PMID 32745753; details: SW-620, Colon cancer; cited from earlier work
SK-OV-3 = tested on: SK-OV-3; parameters: method as in PMID 32745753; details: SK-OV-3, Ovarian cancer; cited from earlier work
HCT-15 = tested on: HCT-15; parameters: method as in PMID 32745753; details: HCT-15, Colon cancer; cited from earlier work
A549/ATCC = tested on: A549/ATCC; parameters: method as in PMID 32745753; details: NSCL cancer; cited from earlier work
K-562 = tested on: K-562; parameters: method as in PMID 32745753; details: K-562, Leukemia; cited from earlier work
KM12 = tested on: KM12; parameters: method as in PMID 32745753; details: KM12, Colon cancer; cited from earlier work
NCI-H522 = tested on: NCI-H522; parameters: method as in PMID 32745753; details: NCI-H522, NSCL cancer; cited from earlier work
MDA-MB-468 = details: MDA-MB-468, Breast cancer; cited from earlier work
LOX IMVI = tested on: LOX IMVI; parameters: method as in PMID 32745753; details: Melanoma; cited from earlier work
SN12C = tested on: SN12C; parameters: method as in PMID 32745753; details: Renal cancer; cited from earlier work
MOLT-4 = tested on: MOLT-4; parameters: method as in PMID 32745753; details: MOLT-4, Leukemia; cited from earlier work

## CNC(=O)c1cc(Oc2ccc(NC(=O)Nc3ccc(Cl)c(C(F)(F)F)c3)cc2)ccn1 [Sorafenib]
RPMI-8226
  GI50: 1500 nM
SW-620
  GI50: 2800 nM
SK-OV-3
  GI50: 2300 nM
HCT-15
  GI50: 2500 nM
A549/ATCC
  GI50: 2900 nM
K-562
  GI50: 2800 nM
KM12
  GI50: 1600 nM
NCI-H522
  GI50: 2100 nM
MDA-MB-468
  GI50: 2000 nM
LOX IMVI
  GI50: 1600 nM
SN12C
  GI50: 2400 nM
MOLT-4
  GI50: 2900 nM
